The test system of one data set is IRF4 and Pu.1. The experiment in a line: IRF4 and Pu.1 expression in RRBL1 cells by western blotting. The conditions noted are these: time course after Aza injection. In kind it is cell-based, human. How it is done: (§1) Subsequently, changes with time regarding CD20 mRNA expression and CD20 protein expression were examined (FIG. 7B) Aza was injected to a culture solution on day 0, and cultured at 37° C. for 24 hours (day 1). Then, the cells were washed and further cultured for 1 to 6 days (day 2 to day 7). RNA and protein were extracted from the cells after culturing, and subjected to analyses by western blotting (using anti-CD20 antibody, anti-IRF4 antibody, anti-PU.1 antibody, anti-DNMT1 antibody, and […]) and RT-PCR.
(§2) IRF4 and Pu.1 are transcriptional factors that have been reported to bind to a CD20 gene promoter. […] DNMT1 (DNA methyltransferase 1) has reported to be decomposed by Aza.
(In western blotting, separated proteins are transferred to a membrane and probed.)

In the next data set the test system is CD20 protein. The experiment in a line: CD20 protein expression in RRBL1 cells by western blotting. In kind it is cell-based, human. The conditions noted are these: for induction of CD20 protein: added to RRBL1, analyzed with elapse of time (summary). How it is done: (§3) 5-aza-2′-deoxycytidine (SIGMA, hereinafter abbreviated as “Aza”) was injected to a culture solution of RRBL1 cells, and the cells were washed after 24 hours. After culturing for further 2 days, RNA and the whole-cell lysate was extracted from the cells, and subjected to analyses by RT-PCR and western blotting. As a result, CD20 mRNA expression increased after the Aza treatment (FIG. 7A, RT, lane 2). In the western blotting analysis, the CD20 protein expression was observed after the Aza treatment (FIG. 7A, IB lane 2).
as §1
Aza and TSA (Trichostatin: histone deacetylase inhibitor) were injected singly or in combination to a culture supernatant of RRBL1 cells. The cells were washed after one day from Aza injection. After further cultured for 2 days, protein was extracted from the cells. In the TSA injected group, protein was extracted from the cells at the point of 24 hours from TSA injection. For the group injected in combination use, Aza was first injected and cultured for 1 day. The cells after washed were cultured for 1 day, then TSA was injected thereto, and further, the cells were dissolved after the elapse of one day to extract protein. Thus obtained each sample was subjected to SDS-PAGE, and western blotting using an anti-CD20 antibody and an anti-GAPDH antibody was then performed.

For the next data set, the system named is CD20 mRNA. The data set is described as follows: CD20 mRNA expression in RRBL1 cells by RT-PCR. In kind it is cell-based, human. The conditions noted are these: for induction of CD20 mRNA: added to RRBL1, analyzed with elapse of time (summary). On the procedure:
as §3, §1

The test system of data set [1] is DNMT1 (DNA methyltransferase 1). The experiment in a line: DNMT1 expression in RRBL1 cells by western blotting. Particulars: day 1 after Aza injection. It is filed as cell-based, human. How it is done:
as §1, §2

Data set [2] has as its system RRBL1 cells. The data set is described as follows: Number of living RRBL1 cells treated with Aza and TSA, cultured with or without rituximab. In kind it is cell-based, human. Particulars: cultured for 2 days. The text has this:
RRBL1 cells (untreated group) and RRBL1 cells treated with Aza and TSA (treated group) were respectively cultured for 2 days in the absence of rituximab (●, ▪) or in the presence of rituximab (♦, ▴), and the number of living cells were compared (FIG. 8C).

The subject of another data set is CD20 positive lymphoma. The conditions noted are these: Non-patent document 10; cited from earlier work.
Data set [3] has as its system RRBL1 cells. The data set is described as follows: Rituximab resistance test: number of living cells after culture with rituximab. In kind it is cell-based, human. The conditions noted are these: rituximab 500 mg/ml, 10% FCS, 37° C. for 2 days. On the procedure:
(§4) Rituximab ([…]) was added to a PRMI1640 culture solution containing 10% FCS and the solution was cultured at 37° C. for 2 days, and the number of living cells was measured. Further, Raji cells were cultured under the same conditions (control group). […] Thus, it was confirmed that the RRBL1 cells indicates rituximab resistance in vitro.

Data set [4] relates to CD20 positive malignant lymphoma. The experiment in a line: Use experience of rituximab-containing chemotherapy, Hospital of Nagoya University. In kind it is in vivo, human. How it is done: Cases of CD20 positive malignant lymphoma in which rituximab-containing chemotherapy was carried out in the Hospital of Nagoya University, School of Medicine are shown. The rituximab-containing chemotherapies were performed in 124 cases in about 5 years from […] to 2006, and in 36 cases (29%) among 124 cases, recurrence or relapse were observed. In 19 cases, about half of these cases, tissue biopsies were carried out again, and in 5 cases (26.3% among the cases subjected to rebiopsy), negative conversion of CD20 expression was confirmed. Prognoses of the cases where CD20 was negatively converted were extremely bad, and patients in all the cases died within 1 year after the confirmation of negative conversion.
In about 5 years from September 2001, CD20 positive malignant lymphoma cases subjected to chemotherapy including rituximab in this facility was 124 cases (FIG. 13), and 36 cases (29.0%) in the 124 cases were recurred or relapsed.

Another data set relates to Raji cells. The data set is described as follows: Rituximab resistance test: number of living cells after culture with rituximab. Particulars: rituximab 500 mg/ml, 10% FCS, 37° C. for 2 days. It is filed as cell-based. On the procedure:
as §4

The mark [5] stands for this setting: RRBL1 cells, Aza on day 0, washed day 1, cultured to day 7.
The mark [6] stands for this setting: RRBL1 cells, washed after 24 hours, cultured further 2 days.

We go through three compounds from patent US8496927B2, “CD20 negatively converted B-cell malignant lymphoma cell line and utilization thereof” (National University Corporation Nagoya University, priority 2006, dated 2013).

On to `Nc1ncn([C@H]2C[C@H](O)[C@@H](CO)O2)c(=O)n1` [Aza, 5-aza-2′-deoxycytidine], for which the “IRF4 and Pu.1 expression” value in the data set on IRF4 and Pu.1 is listed as “tendency of temporal increase”. In the data set with CD20 protein (RRBL1), the “culturing time by which CD20 expression is induced” value is given as 1 to 7 days. Besides, in the data set on CD20 protein (setting [5]), the “CD20 protein expression, change with time” value was “increased from day 1” and the “day on which CD20 protein expression level reached peak” value is 3 days. Besides, the “CD20 protein expression (western blotting)” value in the data set on CD20 protein (setting [6]) was “observed”. For the same compound, the “induction of CD20 protein” value in the data set on CD20 protein is given as “possible”. Besides, the “CD20 mRNA expression, change with time” value in the data set with CD20 mRNA (setting [5]) was “the same tendency as the CD20 protein expression”. In the data set on CD20 mRNA (setting [6]), the “CD20 mRNA expression (RT-PCR)” value is on record as “increased”. The “induction of CD20 mRNA” value with CD20 mRNA is on record as “possible”. Moreover, the DNMT1 expression result in data set [1] is “significant decrease”.
As to `CC(/C=C/C(=O)NO)=C\[C@@H](C)C(=O)c1ccc(N(C)C)cc1` [TSA, Trichostatin A], in the data set with CD20 protein, the “induction of CD20 protein” value is listed as “possible”. The “induction of CD20 mRNA” value in the data set with CD20 mRNA is listed as “possible”.
As to rituximab, the “proliferation (number of living cells) in the presence of rituximab” value in the data set on RRBL1 cells [2] is given as “significantly inhibited”. Besides, the “patients showing rituximab resistance” value in the data set on CD20 positive lymphoma is 5 out of 48. Besides, the “proliferation (number of living cells)” value in the data set with RRBL1 cells [3] was “repression of proliferation was not observed”; with Raji cells, “significantly repressed”. Besides, the “cases with negative conversion (disappearance or decrease) of CD20 expression” value in data set [4] (5 of 19 recurred/relapsed cases subjected to rebiopsy, FCM and immunostaining) came to 26.3%. Further, the “cases recurred or relapsed” value in data set [4] (36 of 124 cases given rituximab-containing chemotherapy, about 5 years from 2001) amounted to 29%.
